Holding throughout (assay type): cell-based, human
Data set [1] concerns 90-8 cells. The data set is described as follows: Annexin V / PI flow cytometry in 90-8 cells. Conditions: 50µM, 48h and 72h, Annexin V and PI staining (Fig. 3C, 3D). The protocol:
• Figure 1: AHR signaling pathway is activated in Dermal and Plexiform Neurofibromas, and MPNST. • A, Total RNA was isolated from patients having Dermal Neurofibromas (n=8), Plexiform Neurofibromas (n=16) and MPNST (n=14). RT-qPCR were performed using primers recognizing specifically the genes indicated. Table indicates median [range] mRNA levels. mRNA levels were normalized such that the median value of the dermal neurofibromas was 1. Kruskal Wallis H test was used to compare MPNST vs Plexiform Neurofibromas vs Dermal Neurofibromas. • B and B', Representative immunohistochemical study of AhR in a case of MPNST. […] A strong nuclear AhR staining is detected in a proportion of tumor cells while intra-tumoral vessels (arrows) whereas fibroblasts in a fibrous septa (*) taken as internal negative controls are not stained. • Figure 2: AhR inhibition induced death of MPNST cell lines (STS26T) by apoptosis. • A, STS26T cell line was reverse transfected with either non-transfected (NT) or siRNA (10 nM). […] Quantitative real-time PCR experiments were performed using primers recognizing AhR, AHRR, ARNT, CYP1A1 and CYP1 B1. *p<0.05, by non-parametric Student's t-test. • B, Flow cytometry has been conducted to determine the percentage of cell population of living cells, apoptotic cells, late apoptosis and dead. […]
(In general: A flow cytometer gives signals particle by particle.)

Data set [2] relates to 90-8 cells. The data set is described as follows: In vitro cytotoxicity assay (WST1 assay) in 90-8 cells. The conditions noted are these: 50 µM, WST1 assay (Fig. 3B). (Tetrazolium assays rely on reduction of a dye to a coloured formazan, in cell work by metabolically active cells.)
Protocol: 90-8 cells were seeded in triplicate on 96-well plates. Cells were treated with either CH-223191 or 0.1% DMSO. Cytotoxicity was quantified 48 and 72 hours after treatment using WST1 assay (Roche). Relative cytotoxicity was determined as ratio of absorbance at 450 nm of cells treated with CH-223191 versus cells treated with DMSO. IC50 values corresponding to concentrations associated to 50% of cell viability after 72 hours of continuous exposure were determined.
In data set [3] the test system is AhR. The data set is described as follows: Quantitative RT-PCR of AhR pathway genes in STS26T cells. Conditions: TMF 10µM, CH-223191 50µM, versus DMSO (Fig. 2C). The protocol: • Figure 1: AHR signaling pathway is activated in Dermal and Plexiform Neurofibromas, and MPNST. • A, Total RNA was isolated from patients having Dermal Neurofibromas (n=8), Plexiform Neurofibromas (n=16) and […]=14). RT-qPCR were performed using primers recognizing specifically the genes indicated. […] Kruskal Wallis H test was used to compare MPNST vs Plexiform Neurofibromas vs Dermal Neurofibromas. • B and B', Representative immunohistochemical study of AhR in a case of MPNST. Formalin fixed, paraffin embedded MPNST samples were stained with Hematoxylin-eosin-saffron (HES) and antibody recognizing AhR has been used to detect AhR. A strong nuclear AhR staining is detected in a proportion of tumor cells while intra-tumoral vessels (arrows) whereas fibroblasts in a fibrous septa (*) taken as internal negative controls are not stained. • Figure 2: AhR inhibition induced death of MPNST cell lines (ST[…]) by apoptosis. • A, ST[…] cell line was reverse transfected with either non-transfected (NT) or siRNA (10 nM). The total RNA was then extracted from these cells. Quantitative real-time PCR experiments were performed using primers recognizing AhR, AHRR, ARNT, CYP1A1 and CYP1 B1. *p<0.05, by non-parametric Student's t-test. • B, Flow cytometry has been conducted to determine the percentage of cell population of living cells, apoptotic cells, late apoptosis and dead. […]

The next data set relates to STS26T cells. The data set can be described thus: Annexin V / PI flow cytometry in STS26T cells. The protocol:
• Figure 1: AHR signaling pathway is activated in Dermal and Plexiform Neurofibromas, and MPNST. • A, Total RNA was isolated from patients having Dermal Neurofibromas (n=8), Plexiform Neurofibromas (n=16) and MPNST (n=14). RT-qPCR were performed using primers recognizing specifically the genes indicated. Table indicates median [range] mRNA levels. mRNA levels were normalized such that the median value of the dermal neurofibromas was 1. Kruskal Wallis H test was used to compare MPNST vs Plexiform Neurofibromas vs Dermal Neurofibromas. • B and B', Representative immunohistochemical study of AhR in a case of MPNST. Formalin fixed, paraffin embedded MPNST samples were stained with Hematoxylin-eosin-saffron (HES) and antibody recognizing AhR has been used to detect AhR. A strong nuclear AhR staining is detected in a proportion of tumor cells while intra-tumoral vessels (arrows) whereas fibroblasts in a fibrous septa (*) taken as internal negative controls are not stained. • Figure 2: AhR inhibition induced death of MPNST cell lines (STS26T) by apoptosis. • A, STS26T cell line was reverse transfected with either non-transfected (NT) or siRNA (10 nM). The total RNA was then extracted from these cells. Quantitative real-time PCR experiments were performed using primers recognizing AhR, AHRR, ARNT, CYP1A1 and CYP1 B1. *p<0.05, by non-parametric Student's t-test. • B, Flow cytometry has been conducted to determine the percentage of cell population of living cells, apoptotic cells, late apoptosis and dead. After 72h of medium change, cells are stained with Annexin and PI to detect the apoptosis and necrosis. Results represent the means +/- SEM of at least four independent experiments. *p<0.05, by non-parametric Student's t-test. • C, Total RNA was extracted from MPNST cell line STS26T treated either with TMF (10µM) and CH-223191 (50µM) or DMSO. Quantitative real-time PCR experiments were performed using primers recognizing CYP1A1, IL1β. The RT-PCR was normalized using TBP mRNA. Data represent the mean +/- SEM of at least 3 independent experiments. *p<0.05, by Student's t-test. • D, Human STS26T cell line was treated with either AHR antagonists CH-223191 (10µM and 50µM) or TMF (10µM) or DMSO. After 48h/72h of medium change, cells are stained with Annexin V and Propidium Iodide (PI) to detect apoptosis and necrosis. Flow cytometry has been conducted to determine the percentage of cell population of living cells (Annexin V-/PI-), apoptotic cells state (Annexin V+/PI-), late apoptosis state cells (Annexin V+/PI+) and dead cells (Annexin V-/PI+). […] Quantitative real-time PCR experiments were performed using primers recognizing CYP1A1 and CYP1 B1. *p<0.05, **p<0.01, ***p<0.001 by students t-test. • B, Human MPNST cell line (90-8) was incubated with AhR antagonist CH-223191 (1, 5, 10, 50 and 100 µM) during 48h and 72h. Cell viability was analyzed using WST1 assay. **p<.01, by Bonferroni's post hoc tests after two-way ANOVA when compared with DMSO. • C - D, Percentage of cell population of apoptotic (Annexin V+/PI-), dead (Annexin V-/PI+), necrotic (Annexin V+/PI+) and living (Annexin V-/PI-) cells were analyzed using flow cytometry. […] Quantitative real-time PCR experiments were performed using primers recognizing PUMA, GADD45 and IL1β. […]

For data set [4], the system named is AhR. The data set is described as follows: Quantitative RT-PCR of AhR target and cell death genes in 90-8 cells.
Protocol: RT-qPCR were performed using primers recognizing specifically the genes indicated. […] The total RNA was then extracted from these cells. […] Quantitative real-time PCR experiments were performed using primers recognizing CYP1A1 and CYP1 B1. *p<0.05, **p<0.01, ***p<0.001 by students t-test. • B, Human MPNST cell line (90-8) was incubated with AhR antagonist CH-223191 (1, 5, 10, 50 and 100 µM) during 48h and 72h. […] E, Total RNA was extracted from 90-8 cell line. Quantitative real-time PCR experiments were performed using primers recognizing PUMA, GADD45 and IL1β. The RT-PCR was normalized using 26S RNA. Data represent the mean+/-SEM of at least 3 independent experiments. *p<0.05, **p<0.01, **p<0.001, by Student's t test.

Structures are written as SMILES.

Turning to `Cc1ccccc1N=Nc1ccc(NC(=O)c2ccnn2C)c(C)c1` [CH-223191], the “number of dead cells, apoptosis and necrosis” value with 90-8 cells [1] was “increased the number of dead cells and enhanced apoptosis and necrosis”. Moreover, the “decreased 90-8 cell viability” value in the data set on 90-8 cells [2] came to 50%. The “expression of AhR target gene: CYP1A” value with AhR [3] is recorded as “inhibited”. Besides, in the data set with STS26T cells (STS26T, 50µM at 48h and 72h, Annexin V and PI staining (Fig. 2D)), the “cell death, apoptosis and necrosis” value was “increased cell death and enhanced apoptosis and necrosis”. In the data set on AhR [4] (90-8 cells (Fig. 3E)), the “expression of IL1β” value is on record as “reduced”; the “expression of PUMA and GADD45 genes” value was “enhanced”. In the data set with AhR [4] (90-8 cells, 50 µM (Fig. 3A)), the “expression of the classical AhR target genes: CYP1A1 and CYP1B1” value is reported as “inhibited”.
Consider `COc1ccc(-c2cc(=O)c3cc(OC)ccc3o2)c(OC)c1` [TMF, 6,2',4',-trimethoxyflavone], for which, in the data set with AhR [3], the “expression of AhR target gene: CYP1A” value is recorded as “inhibited”. Also, the “effect on STS26T cell death” value in the data set with STS26T cells (10µM at 48h and 72h, compared with CH-223191) was “more potent effect than CH-223191”. In addition, in the data set with STS26T cells (STS26T, 10µM, 72h), the cells necrotic was 30%, the cells underwent apoptosis was 20% and the “decrease of cell viability” value is on record as 50%.

These data come from EP3449978A1, “INHIBITORS OF ARYL HYDROCARBON RECEPTOR FOR TREATING SOFT-TISSUE SARCOMA AND PREVENTING NEUROFIBROMA GROWTH AND/OR TRANSFORMATION TO MALIGNANT PERIPHERAL NERVE SHEATH TUMORS” (UNIVERSITE PARIS DESCARTES, priority 2017, dated 2019).
